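Briefly, cells in 96-well plates were exposed to five compound concentrations for 48 h, and endpoints were estimated by linear interpolation. Abbreviation: GI50, concentration required for 50% inhibition of growth.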 Active and inactive are the calls of the source. Cut-off read from the data, not from the text of the source: active = GI50 up to about 1.1 µM and inactive = higher.
Assays:
Experiment in all cases: DTP human tumour cell line panel, 48 h
BT-549 = system: BT-549
RPMI-8226 = system: RPMI-8226
NCI-H460 = system: NCI-H460
EKVX = system: EKVX
A498 = system: A498
UACC-257 = system: UACC-257
A549 = system: A549
SR = system: SR
OVCAR-4 = system: OVCAR-4
LOX IMVI = system: LOX IMVI
TK-10 = system: TK-10
K562 = system: K562
SNB-75 = system: SNB-75
HOP-92 = system: HOP-92
OVCAR-8 = system: OVCAR-8
M14 = system: M14
Malme-3M = system: Malme-3M
SF-295 = system: SF-295
UO-31 = system: UO-31
UACC-62 = system: UACC-62

SMILES: O=C1CS/C(=N/N=C/c2cn(Cc3ccc(Cl)cc3Cl)c3ccccc23)N1
- GI50 (BT-549): > 100 µM (inactive)
- GI50 (RPMI-8226): 52.1 µM (inactive)
- GI50 (NCI-H460): 56.4 µM (inactive)
- GI50 (EKVX): 20.9 µM (inactive)
- GI50 (A498): 19.9 µM (inactive)
- GI50 (UACC-257): 67.8 µM (inactive)
- GI50 (A549): 63 µM (inactive)
- GI50 (SR): 14.1 µM (inactive)
- GI50 (OVCAR-4): 21.8 µM (inactive)
- GI50 (LOX IMVI): 25.2 µM (inactive)
- GI50 (TK-10): > 100 µM (inactive)
- GI50 (K562): 38.8 µM (inactive)
- GI50 (SNB-75): 19.1 µM (inactive)
- GI50 (HOP-92): 28.2 µM (inactive)
- GI50 (OVCAR-8): 10.8 µM (inactive)
- GI50 (M14): 36.5 µM (inactive)
- GI50 (Malme-3M): 76.4 µM (inactive)
- GI50 (SF-295): 64.4 µM (inactive)
- GI50 (UO-31): 31.8 µM (inactive)
- GI50 (UACC-62): 91.2 µM (inactive)

SMILES: Oc1cc(CN2COc3ccccc32)c(O)cc1CNC1CCCCC1
- GI50 (BT-549): 29.9 µM (inactive)
- GI50 (RPMI-8226): 23.8 µM (inactive)
- GI50 (NCI-H460): 17.1 µM (inactive)
- GI50 (EKVX): 17.3 µM (inactive)
- GI50 (A498): 22 µM (inactive)
- GI50 (UACC-257): 15 µM (inactive)
- GI50 (A549): > 100 µM (inactive)
- GI50 (SR): 20.1 µM (inactive)
- GI50 (OVCAR-4): 20.3 µM (inactive)
- GI50 (LOX IMVI): 16.6 µM (inactive)
- GI50 (TK-10): 21.6 µM (inactive)
- GI50 (K562): 21.9 µM (inactive)
- GI50 (SNB-75): 18.8 µM (inactive)
- GI50 (HOP-92): 28.2 µM (inactive)
- GI50 (OVCAR-8): 24 µM (inactive)
- GI50 (M14): 31.3 µM (inactive)
- GI50 (Malme-3M): 18.9 µM (inactive)
- GI50 (SF-295): > 100 µM (inactive)
- GI50 (UO-31): 35.4 µM (inactive)
- GI50 (UACC-62): 23.9 µM (inactive)

SMILES: Cc1ccc2cccc(-c3cccc4ccccc34)c2n1
- GI50 (BT-549): 30.3 µM (inactive)
- GI50 (RPMI-8226): 13.1 µM (inactive)
- GI50 (NCI-H460): 27.5 µM (inactive)
- GI50 (EKVX): 21.4 µM (inactive)
- GI50 (A498): 20.4 µM (inactive)
- GI50 (UACC-257): 29.9 µM (inactive)
- GI50 (A549): 29.5 µM (inactive)
- GI50 (SR): 12.6 µM (inactive)
- GI50 (OVCAR-4): 24.9 µM (inactive)
- GI50 (LOX IMVI): 14.9 µM (inactive)
- GI50 (TK-10): 11.3 µM (inactive)
- GI50 (K562): 4.66 µM (inactive)
- GI50 (SNB-75): 8.87 µM (inactive)
- GI50 (HOP-92): 12.6 µM (inactive)
- GI50 (OVCAR-8): 22.1 µM (inactive)
- GI50 (M14): 17.2 µM (inactive)
- GI50 (Malme-3M): 4.63 µM (inactive)
- GI50 (SF-295): 22.9 µM (inactive)
- GI50 (UO-31): 14.3 µM (inactive)
- GI50 (UACC-62): 19.5 µM (inactive)

SMILES: [N-]=[N+]=NC1C(O)C(CO)OC1n1cnc2c(N)ncnc21 (stereo not given)
- GI50 (BT-549): 54.8 µM (inactive)
- GI50 (RPMI-8226): 45.8 µM (inactive)
- GI50 (NCI-H460): 6.34 µM (inactive)
- GI50 (EKVX): > 100 µM (inactive)
- GI50 (A498): 66.8 µM (inactive)
- GI50 (UACC-257): > 100 µM (inactive)
- GI50 (A549): 47.5 µM (inactive)
- GI50 (SR): 1.67 µM (inactive)
- GI50 (OVCAR-4): > 100 µM (inactive)
- GI50 (LOX IMVI): 24.7 µM (inactive)
- GI50 (TK-10): > 100 µM (inactive)
- GI50 (K562): 19.3 µM (inactive)
- GI50 (SNB-75): 36.4 µM (inactive)
- GI50 (HOP-92): 45.7 µM (inactive)
- GI50 (OVCAR-8): 37.9 µM (inactive)
- GI50 (M14): 36.6 µM (inactive)
- GI50 (Malme-3M): > 100 µM (inactive)
- GI50 (SF-295): 44.1 µM (inactive)
- GI50 (UO-31): 36.6 µM (inactive)
- GI50 (UACC-62): 99.5 µM (inactive)

SMILES: CC1=NN2C(=N)/C(=C/c3ccccc3)C(=O)N=C2S1
- GI50 (BT-549): > 100 µM (inactive)
- GI50 (RPMI-8226): > 100 µM (inactive)
- GI50 (NCI-H460): > 100 µM (inactive)
- GI50 (EKVX): > 100 µM (inactive)
- GI50 (A498): > 100 µM (inactive)
- GI50 (UACC-257): > 100 µM (inactive)
- GI50 (A549): > 100 µM (inactive)
- GI50 (SR): > 100 µM (inactive)
- GI50 (OVCAR-4): > 100 µM (inactive)
- GI50 (LOX IMVI): > 100 µM (inactive)
- GI50 (TK-10): > 100 µM (inactive)
- GI50 (K562): > 100 µM (inactive)
- GI50 (SNB-75): > 100 µM (inactive)
- GI50 (HOP-92): > 100 µM (inactive)
- GI50 (OVCAR-8): > 100 µM (inactive)
- GI50 (M14): > 100 µM (inactive)
- GI50 (Malme-3M): > 100 µM (inactive)
- GI50 (SF-295): > 100 µM (inactive)
- GI50 (UO-31): > 100 µM (inactive)
- GI50 (UACC-62): > 100 µM (inactive)

SMILES: N=C(N)N/N=C/c1c(-c2ccc(Cl)c([N+](=O)[O-])c2)nc2sccn12
- GI50 (BT-549): 1.89 µM (inactive)
- GI50 (RPMI-8226): 2.06 µM (inactive)
- GI50 (NCI-H460): 1.79 µM (inactive)
- GI50 (EKVX): 1.85 µM (inactive)
- GI50 (A498): 1.72 µM (inactive)
- GI50 (UACC-257): 1.91 µM (inactive)
- GI50 (A549): 1.75 µM (inactive)
- GI50 (SR): 2.05 µM (inactive)
- GI50 (OVCAR-4): 1.79 µM (inactive)
- GI50 (LOX IMVI): 2.22 µM (inactive)
- GI50 (TK-10): 1.76 µM (inactive)
- GI50 (K562): 0.845 µM (active)
- GI50 (SNB-75): 1.62 µM (inactive)
- GI50 (HOP-92): 1.87 µM (inactive)
- GI50 (OVCAR-8): 2.11 µM (inactive)
- GI50 (M14): 1.8 µM (inactive)
- GI50 (Malme-3M): 1.91 µM (inactive)
- GI50 (SF-295): 1.75 µM (inactive)
- GI50 (UO-31): 1.85 µM (inactive)
- GI50 (UACC-62): 1.8 µM (inactive)

SMILES: CC(NC(=O)OC(C)(C)C)C(=O)NC(Cc1ccccc1)C(=O)NCC(=O)ON=C1CCCC1 (stereo not given)
- GI50 (BT-549): > 100 µM (inactive)
- GI50 (RPMI-8226): 97.5 µM (inactive)
- GI50 (NCI-H460): > 100 µM (inactive)
- GI50 (EKVX): > 100 µM (inactive)
- GI50 (A498): > 100 µM (inactive)
- GI50 (UACC-257): > 100 µM (inactive)
- GI50 (A549): > 100 µM (inactive)
- GI50 (SR): 31 µM (inactive)
- GI50 (OVCAR-4): > 100 µM (inactive)
- GI50 (LOX IMVI): > 100 µM (inactive)
- GI50 (TK-10): > 100 µM (inactive)
- GI50 (K562): 43.6 µM (inactive)
- GI50 (SNB-75): 93.1 µM (inactive)
- GI50 (HOP-92): > 100 µM (inactive)
- GI50 (OVCAR-8): > 100 µM (inactive)
- GI50 (M14): 53.3 µM (inactive)
- GI50 (Malme-3M): > 100 µM (inactive)
- GI50 (SF-295): > 100 µM (inactive)
- GI50 (UO-31): 65.8 µM (inactive)
- GI50 (UACC-62): > 100 µM (inactive)

SMILES: COc1c(OC)c(OC)c(-c2cc(=O)c3c(OC)c(OC)c(OC)c(OC)c3o2)c(OC)c1OC
- GI50 (BT-549): 34.5 µM (inactive)
- GI50 (RPMI-8226): 60.8 µM (inactive)
- GI50 (NCI-H460): 31.3 µM (inactive)
- GI50 (EKVX): 59.8 µM (inactive)
- GI50 (A498): 31.3 µM (inactive)
- GI50 (UACC-257): 34.5 µM (inactive)
- GI50 (A549): 35 µM (inactive)
- GI50 (SR): > 100 µM (inactive)
- GI50 (OVCAR-4): 18.1 µM (inactive)
- GI50 (LOX IMVI): 30.9 µM (inactive)
- GI50 (TK-10): 29.3 µM (inactive)
- GI50 (K562): 41.1 µM (inactive)
- GI50 (SNB-75): 57.5 µM (inactive)
- GI50 (HOP-92): 21.3 µM (inactive)
- GI50 (OVCAR-8): 31.1 µM (inactive)
- GI50 (M14): 44 µM (inactive)
- GI50 (Malme-3M): 47 µM (inactive)
- GI50 (SF-295): 40.2 µM (inactive)
- GI50 (UO-31): 29.2 µM (inactive)
- GI50 (UACC-62): 34.3 µM (inactive)

SMILES: COc1c2c(cc3c1-c1c(cc4c(c1OC)OCO4)C1OC3C(C)C1C)OCO2.COc1cc2c(c(OC)c1OC)-c1c(cc3c(c1OC)OCO3)C1OC2C(C)C1C (stereo not given)
- GI50 (BT-549): 61.2 µM (inactive)
- GI50 (RPMI-8226): 33 µM (inactive)
- GI50 (NCI-H460): 55.3 µM (inactive)
- GI50 (EKVX): 87.3 µM (inactive)
- GI50 (A498): > 100 µM (inactive)
- GI50 (UACC-257): 73.1 µM (inactive)
- GI50 (A549): 97.5 µM (inactive)
- GI50 (SR): > 100 µM (inactive)
- GI50 (OVCAR-4): > 100 µM (inactive)
- GI50 (LOX IMVI): 68.4 µM (inactive)
- GI50 (TK-10): > 100 µM (inactive)
- GI50 (K562): 72.8 µM (inactive)
- GI50 (SNB-75): 33 µM (inactive)
- GI50 (HOP-92): > 100 µM (inactive)
- GI50 (OVCAR-8): 57 µM (inactive)
- GI50 (M14): > 100 µM (inactive)
- GI50 (Malme-3M): > 100 µM (inactive)
- GI50 (SF-295): 87.1 µM (inactive)
- GI50 (UO-31): 94.8 µM (inactive)
- GI50 (UACC-62): 73.8 µM (inactive)

SMILES: CC[C@@]1(OC(=O)C(N)CCCCN)C(=O)OCc2c1cc1n(c2=O)Cc2cc3ccccc3nc2-1 (stereo not given in full)
- GI50 (BT-549): 0.218 µM (active)
- GI50 (RPMI-8226): 0.0327 µM (active)
- GI50 (NCI-H460): < 0.01 µM (active)
- GI50 (EKVX): 0.753 µM (active)
- GI50 (A498): 0.0802 µM (active)
- GI50 (UACC-257): 0.143 µM (active)
- GI50 (A549): 0.0274 µM (active)
- GI50 (SR): < 0.01 µM (active)
- GI50 (OVCAR-4): 0.332 µM (active)
- GI50 (LOX IMVI): 0.0171 µM (active)
- GI50 (TK-10): 2.55 µM (inactive)
- GI50 (K562): 0.103 µM (active)
- GI50 (SNB-75): 0.0336 µM (active)
- GI50 (HOP-92): 0.179 µM (active)
- GI50 (OVCAR-8): 0.0502 µM (active)
- GI50 (M14): 0.0204 µM (active)
- GI50 (Malme-3M): 0.196 µM (active)
- GI50 (SF-295): < 0.0109 µM (active)
- GI50 (UO-31): 0.0263 µM (active)
- GI50 (UACC-62): < 0.0128 µM (active)

Source: ChEMBL document CHEMBL1201862, “PubChem BioAssay data set” (2004)
